In brackets after ≈: the same amount, converted by molar mass.

Conditions in one series: not given
In turn, `CC1CCC(C)O1` (configuration not stated) registered a solubility of 1180 mM (≈ 118 mg/mL).

For `COc1cc(NS(=O)(=O)c2ccc(N)cc2)nc(OC)n1`, the solubility came to 1.11 mM (≈ 0.343 mg/mL).

On to `Cc1cc(C)c(N)cc1C`, for which the solubility worked out at 11.1 mM (≈ 1.5 mg/mL).

As for `O=C(O)c1ccc(Cl)c(Cl)c1`, the solubility was 0.32 mM (≈ 0.0611 mg/mL).

The compound `CCOc1ccc2nc(S(N)(=O)=O)sc2c1` came in with a solubility of 0.155 mM (≈ 0.04 mg/mL).

Compound `Cc1ccc(C(=O)O)cc1C` had a solubility of 0.86 mM (≈ 0.129 mg/mL).

In the case of `COc1coc(CSP(=O)(OC)OC)cc1=O`, the solubility was determined as 5350 mM (≈ 1500 mg/mL).

For the compound `CC[C@H](Br)C(=O)O`, the solubility was 419 mM (≈ 70 mg/mL).

`Cc1cc(C)c(C)c(C)c1C`: the solubility was 0.105 mM (≈ 0.0155 mg/mL).

The compound `Cc1cc(NS(=O)(=O)c2ccc(N)cc2)nc(C)n1` displayed a solubility of 5.79 mM (≈ 1.61 mg/mL).

In the case of `c1ccc(N=NNc2ccccc2)cc1`, the solubility was determined as 2.54 mM (≈ 0.5 mg/mL).

Compound `O=C1c2ccccc2C(=O)c2c1ccc(O)c2O` displayed a solubility of 1.67 mM (≈ 0.4 mg/mL).

In turn, `Cc1cc(C)c(C(=O)O)c(C)c1` gave a solubility of 4.4 mM (≈ 0.722 mg/mL).

On to `Cc1cc(OC(=O)N(C)C)n(-c2ccccc2)n1`, for which the solubility turned out to be 8.15 mM (≈ 2 mg/mL).

Compound `S=c1[nH]cnc2[nH]cnc12` showed a solubility of 450 mM (≈ 68.5 mg/mL).

Staying with this series, now noted: 20 °C.
For `CNC(=O)N(C)c1nc2ccccc2s1`, the solubility was found to be 0.267 mM (≈ 0.059 mg/mL).

Turning to `O=c1cc(O)cc[nH]1`, the solubility was 56.3 mM (≈ 6.25 mg/mL).

As for `CC(Cl)[N+](=O)[O-]` (configuration not stated), the solubility was found to be 36.5 mM (≈ 4 mg/mL).

Regarding `Oc1nc(O)c2nccnc2n1`, the solubility came to 7.62 mM (≈ 1.25 mg/mL).

The compound `COP(=S)(OC)SCc1nc(N)nc(N)n1` yielded a solubility of 0.853 mM (≈ 0.24 mg/mL).

In turn, `Cc1nc(NS(=O)(=O)c2ccc(N)cc2)oc1C` returned a solubility of 6.27 mM (≈ 1.68 mg/mL).

Regarding `Clc1cccc(-c2c(Cl)cccc2Cl)c1`, the solubility was 0.00015 mM (≈ 3.86e-05 mg/mL).

Take `CON(C)C(=O)Nc1ccc(Br)c(Cl)c1`: the solubility was 0.119 mM (≈ 0.035 mg/mL).

In turn, `COP(=S)(OC)Oc1ccc([N+](=O)[O-])c(Cl)c1` registered a solubility of 0.134 mM (≈ 0.04 mg/mL).

Regarding `C=CCOC(=O)c1ccccc1C(=O)OCC=C`, the solubility is 0.739 mM (≈ 0.182 mg/mL).

`CC1CNCCN1` (configuration not stated) returned a solubility of 4340 mM (≈ 435 mg/mL).

Compound `CC(C)(S)[C@@H](N)C(=O)O` gave a solubility of 744 mM (≈ 111 mg/mL).

In turn, `CCC(Cl)(Cl)[N+](=O)[O-]` showed a solubility of 31.7 mM (≈ 5 mg/mL).

`CNCC(=O)O` registered a solubility of 3370 mM (≈ 300 mg/mL).

With `C[C@@H]1CN[C@@H](C)CN1`, the solubility came out at 3060 mM (≈ 350 mg/mL).

The compound `Clc1ccc(Cl)c(-c2cccc(Cl)c2Cl)c1` yielded a solubility of 0.000342 mM (≈ 0.0001 mg/mL).

`COc1ccc2c(c1O)[C@]13CCN(C)[C@H](C2)[C@@H]1C=CC(=O)C3` came in with a solubility of 13.4 mM (≈ 4 mg/mL).

The compound `OCCCBr` had a solubility of 1020 mM (≈ 142 mg/mL).

Consider `CN=C=S`, for which the solubility turned out to be 104 mM (≈ 7.6 mg/mL).

`O=C(O)CN(CP(=O)(O)O)CP(=O)(O)O` gave a solubility of 943 mM (≈ 248 mg/mL).

The compound `CCCCOC(=O)C(C)O` (configuration not stated) registered a solubility of 274 mM (≈ 40 mg/mL).

Regarding `CCc1ccccc1CC`, the solubility amounted to 0.53 mM (≈ 0.0711 mg/mL).

Compound `O=C(O)[C@H]1CCCC[C@@H]1C(=O)O` (relative stereo) displayed a solubility of 11.6 mM (≈ 2 mg/mL).

As to `Clc1ccccc1-c1cccc(Cl)c1Cl`, the solubility stood at 0.00114 mM (≈ 0.000293 mg/mL).

The compound `O=C1C[C@@H](c2ccc(O)c(O)c2)Oc2cc(O)cc(O)c21` showed a solubility of 0.243 mM (≈ 0.07 mg/mL).

As for `Clc1cc(Cl)c(-c2c(Cl)c(Cl)cc(Cl)c2Cl)cc1Cl`, the solubility was 1.14e-05 mM (≈ 4.51e-06 mg/mL).

`Nc1cnn(-c2ccccc2)c(=O)c1Br` yielded a solubility of 0.752 mM (≈ 0.2 mg/mL).

The compound `O=c1ccc2ccccc2[nH]1` returned a solubility of 7.25 mM (≈ 1.05 mg/mL).

`OCCCCl` gave a solubility of 2640 mM (≈ 250 mg/mL).

`Cc1nnc(-c2ccccc2)c(=O)n1N`: the solubility came to 8.9 mM (≈ 1.8 mg/mL).

`O=[N+]([O-])c1ccc(Cl)c(Cl)c1Cl` returned a solubility of 0.115 mM (≈ 0.026 mg/mL).

The compound `Clc1cc2c(cc1Cl)Oc1c(Cl)c(Cl)c(Cl)c(Cl)c1O2` came in with a solubility of 1.13e-08 mM (≈ 4.4e-09 mg/mL).

`OCCOc1ccccc1`: the solubility amounted to 193 mM (≈ 26.7 mg/mL).

`Clc1c(Cl)c(Cl)c2c(c1Cl)Oc1c(Cl)c(Cl)c(Cl)c(Cl)c1O2` showed a solubility of 8.7e-10 mM (≈ 4e-10 mg/mL).

`O=c1c(O)c(-c2ccc(O)cc2O)oc2cc(O)cc(O)c12` returned a solubility of 0.827 mM (≈ 0.25 mg/mL).

The same series, now with this note: 21 °C.
`CN(C)[C@@H]1C(O)=C(C(N)=O)C(=O)[C@@]2(O)C(O)=C3C(=O)c4c(O)ccc(Cl)c4[C@@H](O)[C@H]3C[C@@H]12` showed a solubility of 3.26 mM (≈ 1.52 mg/mL).

Compound `O=C(O)CCCCCCCCCCCCC(=O)O` gave a solubility of 0.774 mM (≈ 0.2 mg/mL).

Still in this series, the particulars now being: 22 °C.
The compound `Cc1cc(=O)[nH]c(=O)[nH]1` returned a solubility of 55.5 mM (≈ 7 mg/mL).

Compound `COC(=O)NS(=O)(=O)c1ccc(N)cc1` had a solubility of 21.7 mM (≈ 5 mg/mL).

Compound `Cc1cc(S(=O)(=O)c2ccccc2)ccc1NS(=O)(=O)C(F)(F)F` showed a solubility of 0.158 mM (≈ 0.06 mg/mL).

`OC[C@@H](O)[C@@H](O)CO` gave a solubility of 4990 mM (≈ 610 mg/mL).

For `OCc1ccccc1O`, the solubility was determined as 507 mM (≈ 63 mg/mL).

Take `CNC(=O)ON=C(CSC)C(C)(C)C`: the solubility turned out to be 23.8 mM (≈ 5.2 mg/mL).

`CCC1(c2ccccc2)C(=O)NCNC1=O` showed a solubility of 2.29 mM (≈ 0.5 mg/mL).

The series is the same for the next values; noted with them: 23 °C.
Compound `O=c1[nH]cnc2nc[nH]c12` came in with a solubility of 5.14 mM (≈ 0.7 mg/mL).

In turn, `C=C(C)C1CC=C(C)C(=O)C1` (configuration not stated) returned a solubility of 8.67 mM (≈ 1.3 mg/mL).

The same series, now with this note: 24 °C.
For the compound `CN1CCCC(CN2c3ccccc3Sc3ccccc32)C1` (configuration not stated), the solubility worked out at 0.018 mM (≈ 0.00559 mg/mL).

In turn, `CC(C)CC(=O)CC(C)C` returned a solubility of 18.6 mM (≈ 2.64 mg/mL).

The same series, now with this note: 25 °C.
Turning to `Cc1cccc2ccccc12`, the solubility is 0.181 mM (≈ 0.0258 mg/mL).

As to `Cc1ccnc2c1ccc1c(C)ccnc12`, the solubility was determined as 0.107 mM (≈ 0.0224 mg/mL).

Compound `O=C(Oc1ccccc1)c1ccccc1O` had a solubility of 0.7 mM (≈ 0.15 mg/mL).

The compound `CC1CCC(C)(C)C1` (configuration not stated) came in with a solubility of 0.0332 mM (≈ 0.00373 mg/mL).

For orientation: solubility means the dissolved amount per volume that the medium holds. Low readings indicate a poorly soluble substance, high ones a readily soluble substance.

For the origin of these results see the OPERA property sets (Mansouri et al. 2018).
